Measured values from patent publication US20070141028A1, “Cancer gene therapeutic drug” (priority 2003, published 2007).

Columns and labels:
Format in all cases: cell-based
ovarian cancer cells HEY = test: Influence of Fe and ALA on the proliferation inhibitory effect of adenovirus AdE3-1A1.3B (virus rate at IC50); details: IC50 after five days
Experimental: Ovarian cancer cells HEY were cultured in 12-well plate at a rate of 10,000 cells/well and FeSO4 was added at a concentration of 50 μg/ml, 5 μg/ml, 0.5 μg/ml or 0 μg/ml on the following day and the cytolysis type adenovirus AdE3-1A1.3B was added to all wells. The proliferation inhibitory effect of the adenovirus was evaluated by IC50 after five days.
(§1) Next, the ovarian cancer cell line HEY was cultured in a 12-well plate at a rate of 10,000 cells/well and 5-aminolevulinic acid (ALA) was added at a concentration of 50 μg/ml, 5 μg/ml, 0.5 μg/ml or 0 μg/ml on the following day and the cytolysis type adenovirus AdE3-1A1.3B was added to all wells. The proliferation inhibitory effect of the adenovirus was evaluated by IC50 after five days.
as §1, with “Furthermore,” for “Next,”, “FeSO4” for “5-aminolevulinic acid (ALA)”, “day. In addition,” for “day and”, “AdE3-1A1.3B and 50 μg/ml of 5-aminolevulinic acid (ALA) were added to each well. Only the adenovirus” for “AdE3-1A1.3B”, “a control.” for “all wells.”

cancer cells [1] = test: β-gal assay of adenovirus infectivity
From the text: (§2) That is, ALA and Fe can enhance antitumor effect, because they can increase the infectivity of adenovirus to cancer cells and the amount of virus production within the cells.

cancer cells [2] = test: PFU assay of adenovirus production
From the text: as §2

Molecule | proliferation inhibitory effect relative to only adenovirus administration (ovarian cancer cells HEY; 50 μg/ml ALA + AdE3-1A1.3B) | infectivity of adenovirus (cancer cells [1]) | amount of adenovirus production (cancer cells [2]) | proliferation inhibitory effect relative to only adenovirus administration (ovarian cancer cells HEY; 0.5 μg/ml FeSO4 + 50 μg/ml ALA + AdE3-1A1.3B) | proliferation inhibitory effect relative to only adenovirus administration (ovarian cancer cells HEY; 5 μg/ml FeSO4 + 50 μg/ml ALA + AdE3-1A1.3B) | proliferation inhibitory effect relative to only adenovirus administration (ovarian cancer cells HEY; 5 μg/ml FeSO4 + AdE3-1A1.3B) | proliferation inhibitory effect relative to only adenovirus administration (ovarian cancer cells HEY; 50 μg/ml FeSO4 + 50 μg/ml ALA + AdE3-1A1.3B) | proliferation inhibitory effect relative to only adenovirus administration (ovarian cancer cells HEY; 50 μg/ml FeSO4 + AdE3-1A1.3B)
NCC(=O)CCC(=O)O [ALA, 5-aminolevulinic acid] | about 100 fold | increased infectivity of adenovirus | increased amount of adenovirus production | – | – | – | – | –
ferrous sulfate [FeSO4] | – | – | – | about 200 fold | about 700 fold | about 8 fold | about 1,000 fold | about 20 fold
